The target of experiment [1] is isolated recombinant JAK1 kinase domain (Homo sapiens (Human), UniProt P23458). The experiment can be described thus: JAK1 enzyme assay (Caliper LabChip, Ki). Type of experiment: biochemical. The method in brief: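 Recombinant human JAK1 kinase domain phosphorylating an N-terminally 5-carboxyfluorescein-labelled JAK3-derived peptide, 30 min at 22 °C, stopped with EDTA (50 mM final). Phosphorylated fraction of total peptide read by Caliper LabChip mobility shift; Ki from Morrison tight-binding fit corrected for ATP competition (Ki=Ki,app/(1+[ATP]/Km,app)).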
Chain of isolated recombinant JAK1 kinase domain (P23458 875-1153): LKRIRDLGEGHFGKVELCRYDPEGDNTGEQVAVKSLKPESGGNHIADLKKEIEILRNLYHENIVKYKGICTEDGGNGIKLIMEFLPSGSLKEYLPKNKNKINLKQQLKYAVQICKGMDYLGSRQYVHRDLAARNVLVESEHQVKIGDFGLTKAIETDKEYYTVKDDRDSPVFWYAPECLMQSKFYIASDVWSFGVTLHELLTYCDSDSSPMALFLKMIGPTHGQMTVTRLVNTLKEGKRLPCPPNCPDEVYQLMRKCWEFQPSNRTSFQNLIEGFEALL

Experiment [2] deals with isolated recombinant JAK2 kinase domain (Homo sapiens (Human), UniProt O60674). The experiment can be described thus: JAK2 enzyme assay (Caliper LabChip, Ki). The format is biochemical. The method in brief:
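Recombinant human JAK1 or JAK2 kinase domain phosphorylating a 5-carboxyfluorescein-labelled JAK3-derived peptide; 30 min at 22 °C, stopped with EDTA (50 mM final). Phosphorylated product measured as a fraction of total peptide by Caliper LabChip mobility shift.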

Experiment [3] concerns JAK1-dependent STAT6 phosphorylation downstream of IL-13 stimulation in BEAS-2B human bronchial epithelial cells. Kind of experiment: JAK1 pathway assay in BEAS-2B cells (IL-13-pSTAT6, MSD). The format is cell-based. The following applies: Homo sapiens, BEAS-2B.
Where [4] appears, read: BEAS-2B cells, IL-13 stimulation, read-out: IL-13 p-STAT6 BEAS-2B IC50.

In general, Ki refers to a measure of affinity in units of concentration, obtained from inhibition or displacement. In general, IC50 refers to the concentration that gives 50% inhibition.

Molecules are shown by their SMILES. Where two headings read alike, the source gives them in different places.

Chain of isolated recombinant JAK2 kinase domain (O60674 849-1124): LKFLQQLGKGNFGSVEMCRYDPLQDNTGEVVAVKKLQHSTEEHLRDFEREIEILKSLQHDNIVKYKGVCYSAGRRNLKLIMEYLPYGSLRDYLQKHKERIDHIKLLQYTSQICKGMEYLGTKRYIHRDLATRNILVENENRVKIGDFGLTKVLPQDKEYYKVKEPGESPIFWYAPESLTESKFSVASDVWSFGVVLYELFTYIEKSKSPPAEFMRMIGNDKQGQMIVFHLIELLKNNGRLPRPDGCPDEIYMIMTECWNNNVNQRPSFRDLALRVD

For `C#Cc1ccc(CN2CCC(CC#N)(n3cc(C(N)=O)c(NC(=O)OC)n3)C(F)C2)cc1` (stereo not drawn) [Example 270, methyl N-[4-carbamoyl-1-[4-(cyanomethyl)-1-[(4-ethynylphenyl)methyl]-3-fluoro-4-piperidyl]pyrazol-3-yl]carbamate], the Ki in experiment [1] (read-out: JAK1 Ki) came to 0.41 nM; in experiment [2], 0.9 nM. The IC50 in experiment [3] (setting [4]) was found to be 21 nM.
Regarding `N#CCC1(n2cc(C(N)=O)c(NC(=O)C3CC3)n2)CCN(Cc2ccccc2Cl)CC1` [Example 58], the Ki worked out at 4.4 nM in experiment [1] (read-out: JAK1 Ki) and 42.6 nM in experiment [2]. Also, the IC50 in experiment [3] (setting [4]) was determined as 287 nM.
As for `N#CCC1(n2cc(C(N)=O)c(NC(=O)C3CC3)n2)CCC(Nc2ccc(C3=CCCC3)cc2)CC1` (stereo not drawn) [Example 275, 1-[1-(cyanomethyl)-4-[4-(cyclopenten-1-yl)anilino]cyclohexyl]-3-(cyclopropanecarbonylamino) pyrazole-4-carboxamide], the Ki worked out at 1.1 nM in experiment [1] (read-out: JAK1 Ki) and 8.1 nM in experiment [2]. Further, the IC50 in experiment [3] (setting [4]) is 52 nM.
Turning to `Cc1ccc(OC2(C)CN([C@H]3CC[C@](CC#N)(n4cc(C(N)=O)c(NC(=O)C5CC5)n4)CC3)C2)cc1` [Example 300, 1-[1-(cyanomethyl)-4-[3-methyl-3-(4-methylphenoxy)azetidin-1-yl]cyclohexyl]-3-(cyclopropanecarbonylamino) pyrazole-4-carboxamide], the figures for the Ki in experiment [1] (read-out: JAK1 Ki) and in experiment [2] were 1.5 nM and 1.3 nM, respectively. In addition, in experiment [3] (setting [4]), the concentration for half-maximal inhibition (IC50) was found to be 43 nM.
Take `N#CCC1(n2cc(C(N)=O)c(NC(=O)C3CC3)n2)CCN(Cc2ccc(C#N)cc2)CC1` [Example 66]: the results for the Ki in experiment [1] (read-out: JAK1 Ki) and in experiment [2] were 4 nM and 50.2 nM, respectively. Also, the IC50 in experiment [3] (setting [4]) was determined as 910 nM.
With `N#CCC1(n2cc(C(N)=O)c(NC(=O)C3CC3)n2)CCN(Cc2ccc(-c3ccc(Cl)cc3)cc2)CC1` [Example 147, 1-[1-[[4-(4-chlorophenyl)phenyl]methyl]-4-(cyanomethyl)-4-piperidyl]-3-(cyclopropanecarbonylamino) pyrazole-4-carboxamide], the Ki in experiment [1] (read-out: JAK1 Ki) was found to be 2.1 nM; in experiment [2], 32 nM. In addition, the IC50 in experiment [3] (setting [4]) came out at 51 nM.
Take `Cc1c(CN2CCC(CC#N)(n3cc(C(N)=O)c(NC(=O)C4CC4)n3)C(F)C2)ccc(-c2ccccc2)c1O` (stereo not drawn) [Example 213, 1-[4-(cyanomethyl)-3-fluoro-1-[(3-hydroxy-2-methyl-4-phenyl-phenyl)methyl]-4-piperidyl]-3-(cyclopropanecarbonylamino) pyrazole-4-carboxamide]: the results for the Ki in experiment [1] (read-out: JAK1 Ki) and in experiment [2] were 0.37 nM and 0.28 nM, respectively. For the same molecule, the IC50 in experiment [3] (setting [4]) was found to be 22 nM.
The matching figures for `N#CCC1(n2cc(C(N)=O)c(NC(=O)C3CC3)n2)CCN(Cc2ccc(Cl)cc2)CC1` [Example 60]: 3.9 nM, 23.4 nM and 94 nM.
Turning to `N#CCC1(n2cc(C(N)=O)c(NC(=O)C3CC3)n2)CCN(Cc2cnc(-c3ccccc3)cc2F)CC1` [Example 202, 1-[4-(cyanomethyl)-1-[(4-fluoro-6-phenyl-3-pyridyl)methyl]-4-piperidyl]-3-(cyclopropanecarbonylamino) pyrazole-4-carboxamide], the Ki worked out at 0.55 nM in experiment [1] (read-out: JAK1 Ki) and 0.74 nM in experiment [2]. In experiment [3] (setting [4]), the half-inhibitory concentration (IC50) was determined as 74 nM.
`CCOC1(C(F)(F)F)CN([C@H]2CC[C@@](CC#N)(n3cc(C(N)=O)c(NC(=O)C4CC4)n3)CC2)C1` (single isomer, unassigned) [Example 9]: the Ki in experiment [1] (read-out: JAK1 Ki) worked out at 2.2 nM; in experiment [2], 24.3 nM. In experiment [3] (setting [4]), the 50% inhibitory concentration (IC50) was 436 nM.
On to `CCOC1(C(F)(F)F)CN([C@H]2CC[C@](CC#N)(n3cc(C(N)=O)c(NC(=O)C4CC4)n3)CC2)C1` (single isomer, unassigned) [Example 10], for which the inhibition constant Ki in experiment [1] (read-out: JAK1 Ki) was more than 562 nM; in experiment [2], more than 319 nM. In experiment [3] (setting [4]), the IC50 was more than 1000 nM.
The matching figures for `C#Cc1ccc(CN2CCC(CC#N)(n3cc(C(N)=O)c(NC(=O)C4CC4)n3)C(F)C2)cc1` (stereo not drawn) [Example 260, 1-[4-(cyanomethyl)-1-[(4-ethynylphenyl)methyl]-3-fluoro-4-piperidyl]-3-(cyclopropanecarbonylamino) pyrazole-4-carboxamide]: 0.25 nM, 0.35 nM and 32 nM.
The matching figures for `COC(=O)Nc1nn(C2(CC#N)CCN(Cc3cc(C(F)F)ccc3F)CC2F)cc1C(N)=O` (stereo not drawn) [Example 283, methyl N-[4-carbamoyl-1-[4-(cyanomethyl)-1-[[5-(difluoromethyl)-2-fluoro-phenyl]methyl]-3-fluoro-4-piperidyl]pyrazol-3-yl]carbamate]: 1.4 nM, 2.9 nM and 77 nM.
`N#CCC1(n2cc(C(N)=O)c(NC(=O)C3CC3)n2)CCN(Cc2ccc(-c3ccc(C(F)(F)F)cc3)cc2)CC1` [Example 151, 1-[4-(cyanomethyl)-1-[[4-[4-(trifluoromethyl)phenyl]phenyl]methyl]-4-piperidyl]-3-(cyclopropanecarbonylamino) pyrazole-4-carboxamide]: the results for the inhibition constant (Ki) in experiment [1] (read-out: JAK1 Ki) and in experiment [2] were 3.4 nM and 154 nM, respectively. For the same molecule, the concentration for half-maximal inhibition (IC50) in experiment [3] (setting [4]) was 286 nM.
For `N#CCC1(n2cc(C(N)=O)c(NC(=O)C3CC3)n2)CCN(C(=O)OCC2CC2)CC1` [Example 17, Cyclopropylmethyl 4-(4-carbamoyl-3-(cyclopropanecarboxamido)-1H-pyrazol-1-yl)4-(cyanomethyl) piperidine-1-carboxylate] the same measures were 4 nM, 69.4 nM and 948 nM.
As to `C=C(C)c1cc(F)c(CN2CCC(CC#N)(n3cc(C(N)=O)c(NC(=O)OC)n3)C(F)C2)cc1O` (stereo not drawn) [Example 274, methyl N-[4-carbamoyl-1-[4-(cyanomethyl)-3-fluoro-1-[(2-fluoro-5-hydroxy-4-isopropenyl-phenyl)methyl]-4-piperidyl]pyrazol-3-yl]carbamate], the Ki in experiment [1] (read-out: JAK1 Ki) is 0.58 nM; in experiment [2], 0.61 nM. In addition, the IC50 in experiment [3] (setting [4]) stood at 38 nM.
For `N#CCC1(n2cc(C(N)=O)c(NC(=O)C3CC3)n2)CCN(Cc2ccccc2F)CC1` [Example 184, 1-[4-(cyanomethyl)-1-[(2-fluorophenyl)methyl]-4-piperidyl]-3-(cyclopropanecarbonylamino) pyrazole-4-carboxamide] the same measures were 90.4 nM, 160 nM and 177 nM.
For `CCOC(=O)Nc1nn(C2(CC#N)CCN(Cc3ccc(-c4ccccc4)c(O)c3)CC2)cc1C(N)=O` [Example 187, ethyl N-[4-carbamoyl-1-[4-(cyanomethyl)-1-[(3-hydroxy-4-phenyl-phenyl)methyl]-4-piperidyl]pyrazol-3-yl]carbamate] the same measures were 0.52 nM, 3.1 nM and 74 nM.
For `N#CCC1(n2cc(C(N)=O)c(NC(=O)C3CC3)n2)CCN(CC2CCC(c3ccccc3)CC2)CC1F` (stereo not drawn) [Example 233, 1-[4-(cyanomethyl)-3-fluoro-1-[(4-phenylcyclohexyl)methyl]-4-piperidyl]-3-(cyclopropanecarbonylamino) pyrazole-4-carboxamide] the same measures were 0.3 nM, 0.45 nM and 39 nM.
As to `N#CCC1(n2cc(C(N)=O)c(NC(=O)C3CC3)n2)CCN(Cc2ccc(-c3cccc(CO)c3)cc2)CC1` [Example 156, 1-[4-(cyanomethyl)-1-[[4-[3-(hydroxymethyl)phenyl]phenyl]methyl]-4-piperidyl]-3-(cyclopropanecarbonylamino) pyrazole-4-carboxamide], the Ki in experiment [1] (read-out: JAK1 Ki) is 0.6 nM; in experiment [2] it was 4.3 nM. In addition, the IC50 in experiment [3] (setting [4]) turned out to be 209 nM.
As for `COC(=O)Nc1nn(C2(CC#N)CCN(Cc3ccc(-c4ccccc4)c(O)c3F)CC2F)cc1C(N)=O` (stereo not drawn) [Example 263, methyl N-[4-carbamoyl-1-[4-(cyanomethyl)-3-fluoro-1-[(2-fluoro-3-hydroxy-4-phenyl-phenyl)methyl]-4-piperidyl]pyrazol-3-yl]carbamate], the values for the Ki in experiment [1] (read-out: JAK1 Ki) and in experiment [2] were 0.3 nM and 0.24 nM, respectively. Further, the half-inhibitory concentration (IC50) in experiment [3] (setting [4]) stood at 25 nM.
The matching figures for `CCC1(n2cc(C(N)=O)c(Nc3ccc(S(=O)(=O)C(F)F)cc3)n2)CCN(Cc2cc(O)ccc2F)CC1` [Example 301, 3-((4-((Difluoromethyl)sulfonyl)phenyl)amino)-1-(4-ethyl-1-(2-fluoro-5-hydroxybenzyl)piperidin-4-yl)-1H-pyrazole-4-carboxamide]: 1.5 nM, 2 nM and 100 nM.
For `CCn1ccc(-c2ccc(CN3CCC(CC#N)(n4cc(C(N)=O)c(NC(=O)OC)n4)C(F)C3)cc2)n1` (stereo not drawn) [Example 216, methyl N-[4-carbamoyl-1-[4-(cyanomethyl)-1-[[4-(1-ethylpyrazol-3-yl)phenyl]methyl]-3-fluoro-4-piperidyl]pyrazol-3-yl]carbamate] the same measures were 0.74 nM, 0.7 nM and 40 nM.
In the case of `CN(CC(F)(F)F)[C@H]1CC[C@](CC#N)(n2cc(C(N)=O)c(NC(=O)C3CC3)n2)CC1` [Example 129], the Ki is 3.3 nM in experiment [1] and 16.3 nM in experiment [2]. For the same molecule, the IC50 in experiment [3] (setting [4]) came to 393 nM.
Turning to `N#CC[C@]1(n2cc(C(N)=O)c(NC(=O)C3CC3)n2)CC[C@@H](NCc2ccc(-c3ccccc3)cc2)CC1` [Example 128], the Ki in experiment [1] amounted to 4.6 nM; in experiment [2] it was 46.4 nM. For the same molecule, the half-maximal inhibitory concentration (IC50) in experiment [3] (read-out: IL-13 p-STAT6 BEAS-2B IC50, BEAS-2B cells, IL-13 stimulation) came to 349 nM.
